Experiments:
hCRTH2 receptor [1] = target: T1, hCRTH2 receptor (Homo sapiens (Human), UniProt Q9Y5Y4); assay: hCRTH2 receptor membranes radioligand displacement assay (3H-PGD2); details: 3H-PGD2 2.5 nM, HEK293-hCRTH2 membranes, Binding-Buffer with 0.1% BSA
Procedure: Biological Assays: Preparation of hCRTH2 Receptor Membranes and Radioligand Displacement Assay:
(§1) First, recombinant HEK293-hCRTH2 cells were detached from culture plates into 5 ml buffer A/plate (Buffer A: 5 mM Tris, 1 mM MgCl2-6H2O pH=7.4) using a rubber policeman. Cells were then transferred into centrifugation tubes and centrifuged for 5 min at 400 g. The cell pellet was resuspended in the same buffer and tubes were frozen at −80° C. Cells were thawed and membrane fragments were generated by homogenization using a polytron homogenizer (30 seconds). The membrane fragments were then centrifuged at 3000 g for 20 minutes and resuspended in buffer C (Buffer C: 75 mM Tris, 25 mM MgCl2, 250 mM Saccharose pH 7.4). Aliquots of membrane fragements were stored at −20° C.
(§2) Binding assay was performed in a final assay volume of 250 μl. First, 25 μl of test compound, previously diluted in Binding-Buffer (Binding-Buffer: 50 mM Tris-Base, 100 mM NaCl, 1 mM EDTA, 0.1% BSA (protease free), 0.01% NaN3, 10 mM MnCl2 pH 7.0) was placed into each well. After addition of 75 μl Binding-Buffer, 50 μl of the radioligand ^3H-PGD2 (at 2.5 nM (220.000 dpm/well) from ANAWA ART0662) was added to each well. Binding assay was started by addition of 100 μl CRTH2 membrane fragments, reaching a final concentration of 20 μg/well. For non-specific binding, PGD2 was added to the reaction mixture to […] final concentration. This assay mix was incubated for 90 minutes at room temperature and then filtered through a GF/C filter 96-well plate which was pre-soaked for 3 hours in 0.5% polyethyleneimine (PEI). The filter-wells were washed three times with ice cold Binding-Buffer. Then, 40 μl of Microscint-40 (Packard) was added to each well and the retained radioactivity quantified in a Topcount (Packard).

hCRTH2 receptor [2] = target: T1, hCRTH2 receptor; assay: Radioligand displacement assay in presence of human serum albumin (HSA); details: 3H-PGD2 2.5 nM, Binding-Buffer with 0.5% HSA instead of 0.1% BSA
Procedure: as §1, §2
Radioligand Displacement Assay-Human Serum Albumin (HSA):
Radioligand displacement assay in presence of human serum albumin (HSA) was performed as described above, with following modifications. Binding-Buffer-HSA: Binding-buffer+0.5% Sigma Albumin from Human serum A1887 (instead of 0.1% BSA). A volume of 25 μl test compound, previously diluted in Binding-Buffer-HSA was placed into each well. After addition of 75 μl Binding-Buffer-HSA, 50 μl of ^3H-PGD2 (at 2.5 nM (220.000 dpm/well) from ANAWA ART0662) was added to each well. Remaining protocol was identical as described above.

T1 sequence (Q9Y5Y4 whole entry): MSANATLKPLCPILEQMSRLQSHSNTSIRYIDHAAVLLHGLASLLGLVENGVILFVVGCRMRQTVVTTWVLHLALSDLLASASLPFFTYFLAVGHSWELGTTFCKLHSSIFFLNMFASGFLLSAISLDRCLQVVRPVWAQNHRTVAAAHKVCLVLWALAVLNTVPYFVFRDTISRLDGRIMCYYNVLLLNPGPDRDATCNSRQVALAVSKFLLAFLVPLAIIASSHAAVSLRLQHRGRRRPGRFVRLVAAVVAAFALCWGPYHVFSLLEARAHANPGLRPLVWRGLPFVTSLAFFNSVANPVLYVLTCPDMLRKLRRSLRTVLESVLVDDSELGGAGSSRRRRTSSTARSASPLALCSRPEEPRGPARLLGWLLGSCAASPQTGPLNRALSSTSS

SMILES	IC50 (hCRTH2 receptor [1])	IC50 (hCRTH2 receptor [2])
COc1cnc(N(C)[C@H]2CCc3c(c4cc(F)ccc4n3CC(=O)O)C2)nc1 [Example 31, (3S)-2-(6-fluoro-3-((5-methoxypyrimidin-2-yl)(methyl)amino)-3,4-dihydro-1H-carbazol-9(2H)-yl)acetic acid]	7.2 nM	43 nM
CN(c1ncc(Cl)cn1)C1CCc2c(c3cc(Cl)ccc3n2CC(=O)O)C1 (stereo not shown) [Example 54, 2-(6-chloro-3-((5-chloropyrimidin-2-yl)(methyl)amino)-3,4-dihydro-1H-carbazol-9(2H)-yl)acetic acid]	2 nM	3 nM
CN(c1nc(C(F)(F)F)cs1)C1CCc2c(c3cc(F)ccc3n2CC(=O)O)C1 (stereo not shown) [Example 47, 2-(6-fluoro-3-(methyl(4-(trifluoromethyl)thiazol-2-yl)amino)-3,4-dihydro-1H-carbazol-9(2H)-yl)acetic acid]	14 nM	402 nM
COc1ccc2c(c1)c1c(n2CC(=O)O)CCC(N(C)c2ncc(Cl)cn2)C1 (stereo not shown) [Example 57, 2-(3-((5-chloropyrimidin-2-yl)(methyl)amino)-6-methoxy-3,4-dihydro-1H-carbazol-9(2H)-yl)acetic acid]	4.6 nM	56 nM
CN(c1cnc2ccccc2n1)[C@H]1CCc2c(c3cc(F)ccc3n2CC(=O)O)C1 [Example 44, (3S)-2-(6-fluoro-3-(methyl(quinoxalin-2-yl)amino)-3,4-dihydro-1H-carbazol-9(2H)-yl)acetic acid]	11 nM	176 nM
CN(c1ccn(C)n1)C1CCc2c(c3cc(F)ccc3n2CC(=O)O)C1 (stereo not shown) [Example 49, 2-(6-fluoro-3-(methyl(1-methyl-1H-pyrazol-3-yl)amino)-3,4-dihydro-1H-carbazol-9(2H)-yl)acetic acid]	37 nM	
CN(c1ncnc2ccccc12)[C@H]1CCc2c(c3cc(F)ccc3n2CC(=O)O)C1 [Example 21, (3S)-2-(6-fluoro-3-(methyl(quinazolin-4-yl)amino)-3,4-dihydro-1H-carbazol-9(2H)-yl)acetic acid]	26 nM	
CN(c1ncc(Cl)cn1)C1CCc2c(c3ccccc3n2CC(=O)O)C1 (stereo not shown) [Example 53, 2-(3-((5-chloropyrimidin-2-yl)(methyl)amino)-3,4-dihydro-1H-carbazol-9(2H)-yl)acetic acid]	5.1 nM	16 nM
CN(c1ncc(Cl)cn1)[C@@H]1CCc2c(c3cc(F)ccc3n2CC(=O)O)C1 [Example 10, (3R)-2-(3-((5-chloropyrimidin-2-yl)(methyl)amino)-6-fluoro-3,4-dihydro-1H-carbazol-9(2H)-yl)acetic acid]	58 nM	
CN(c1ccc(F)cn1)[C@H]1CCc2c(c3cc(F)ccc3n2CC(=O)O)C1 [Example 36, (3S)-2-(6-fluoro-3-((5-fluoropyridin-2-yl)(methyl)amino)-3,4-dihydro-1H-carbazol-9(2H)-yl)acetic acid]	9.8 nM	8 nM
CN(c1ccc(Cl)cn1)[C@H]1CCc2c(c3cc(F)ccc3n2CC(=O)O)C1 [Example 37, (3S)-2-(3-((5-chloropyridin-2-yl)(methyl)amino)-6-fluoro-3,4-dihydro-1H-carbazol-9(2H)-yl)acetic acid]	5.2 nM	13 nM
Cc1cc(C)nc(N(C)[C@H]2CCc3c(c4cc(F)ccc4n3CC(=O)O)C2)n1 [Example 16, (3S)-2-(3-((4,6-dimethylpyrimidin-2-yl)(methyl)amino)-6-fluoro-3,4-dihydro-1H-carbazol-9(2H)-yl)acetic acid]	125 nM	
CN(c1ncc(Cl)cn1)C1CCc2c(c3cc(OC(F)(F)F)ccc3n2CC(=O)O)C1 (stereo not shown) [Example 56, 2-(3-((5-chloropyrimidin-2-yl)(methyl)amino)-6-(trifluoromethoxy)-3,4-dihydro-1H-carbazol-9(2H)-yl)acetic acid]	8.8 nM	303 nM
CN(c1nc(C(C)(C)C)cs1)C1CCc2c(c3cc(F)ccc3n2CC(=O)O)C1 (stereo not shown) [Example 46, 2-(3-((4-(tert-butyl)thiazol-2-yl)(methyl)amino)-6-fluoro-3,4-dihydro-1H-carbazol-9(2H)-yl)acetic acid]	73 nM	
CC(C)N(c1ncc(Cl)cn1)[C@H]1CCc2c(c3cc(F)ccc3n2CC(=O)O)C1 [Example 26, (3S)-2-(3-((5-chloropyrimidin-2-yl)(isopropyl)amino)-6-fluoro-3,4-dihydro-1H-carbazol-9(2H)-yl)acetic acid]	809 nM	
CN(c1ncc(F)cn1)[C@@H]1CCc2c(c3cc(F)ccc3n2CC(=O)O)C1 [Example 8, (3R)-2-(6-fluoro-3-((5-fluoropyrimidin-2-yl)(methyl)amino)-3,4-dihydro-1H-carbazol-9(2H)-yl)acetic acid]	42 nM	
Cc1ccnc(N(C)[C@H]2CCc3c(c4cc(F)ccc4n3CC(=O)O)C2)n1 [Example 17, (3S)-2-(6-fluoro-3-(methyl(4-methylpyrimidin-2-yl)amino)-3,4-dihydro-1H-carbazol-9(2H)-yl)acetic acid]	107 nM	
Cc1nc(N(C)[C@H]2CCc3c(c4cc(F)ccc4n3CC(=O)O)C2)c2ccccc2n1 [Example 23, (3S)-2-(6-fluoro-3-(methyl(2-methylquinazolin-4-yl)amino)-3,4-dihydro-1H-carbazol-9(2H)-yl)acetic acid]	55 nM	
O=C(O)Cn1c2c(c3cc(F)ccc31)C[C@H](Nc1ncc(C(F)(F)F)cn1)CC2 [Example 5, (3R)-2-(6-fluoro-3-((5-(trifluoromethyl)pyrimidin-2-yl)amino)-3,4-dihydro-1H-carbazol-9-(2H)-yl)acetic acid]	27 nM	
CN(c1cc(C(C)(C)C)on1)C1CCc2c(c3cc(F)ccc3n2CC(=O)O)C1 (stereo not shown) [Example 48, 2-(3-((5-(tert-butyl)isoxazol-3-yl)(methyl)amino)-6-fluoro-3,4-dihydro-1H-carbazol-9(2H)-yl)acetic acid]	72 nM	
O=C(O)Cn1c2c(c3cc(F)ccc31)C[C@H](Nc1nccc(C(F)(F)F)n1)CC2 [Example 6, (3R)-2-(6-fluoro-3-((4-(trifluoromethyl)pyrimidin-2-yl)amino)-3,4-dihydro-1H-carbazol-9-(2H)-yl)acetic acid]	46 nM	
CN(c1ncc(C(F)(F)F)cn1)[C@@H]1CCc2c(c3cc(F)ccc3n2CC(=O)O)C1 [Example 12, (3R)-2-(6-fluoro-3-(methyl(5-(trifluoromethyl)pyrimidin-2-yl)amino)-3,4-dihydro-1H-carbazol-9(2H)-yl)acetic acid]	141 nM	
O=C(O)Cn1c2c(c3cc(F)ccc31)C[C@H](Nc1ncc(F)cn1)CC2 [Example 2, (3R)-2-(6-fluoro-3-((5-fluoropyrimidin-2-yl)amino)-3,4-dihydro-1H-carbazol-9-(2H)-yl)acetic acid]	27 nM	
Cc1nnc(N(C)C2CCc3c(c4cc(F)ccc4n3CC(=O)O)C2)s1 (stereo not shown) [Example 50, 2-(6-fluoro-3-(methyl(5-methyl-1,3,4-thiadiazol-2-yl)amino)-3,4-dihydro-1H-carbazol-9(2H)-yl)acetic acid]	127 nM	
CN(c1nccc(C(F)(F)F)n1)[C@@H]1CCc2c(c3cc(F)ccc3n2CC(=O)O)C1 [Example 14, (3R)-2-(6-fluoro-3-(methyl(4-(trifluoromethyl)pyrimidin-2-yl)amino)-3,4-dihydro-1H-carbazol-9(2H)-yl)acetic acid]	67 nM	
